Columns and labels:
Test in all cases: relative viability (nuclei count vs DMSO), 5 days (fraction); higher = more cells survive
[1] = test system: HCC-78
In short: (§1)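 Values are medians from duplicate plates. Each reflects relative viability, defined as the nuclei count of treated wells over that of vehicle wells. Lung cancer cell lines in 1536-well plates were pin-tool dosed one day after seeding with one drug alone or with a fixed anchor-drug dose plus five library-drug doses (not always all listed) in √10 steps, then fixed, stained and imaged at 4× after 5 days.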

[2] = test system: NCI-H1355
In short: as §1

[3] = test system: NCI-H2085
In short: as §1

[4] = test system: HCC-366
In short: as §1

[5] = test system: NCI-H1993
In short: as §1

[6] = test system: SW 1573
In short: as §1

[7] = test system: NCI-H3122
In short: as §1

[8] = test system: LK-2
In short: as §1

[9] = test system: NCI-H2009
In short: as §1

[10] = test system: NCI-H2347
In short: as §1

[11] = test system: NCI-H1734
In short: as §1

[12] = test system: LC-2-ad
In short: as §1

[13] = test system: NCI-H838
In short: as §1

[14] = test system: NCI-H2228
In short: as §1

[15] = test system: EMC-BAC-2
In short: as §1

[16] = test system: RERF-LC-KJ
In short: as §1

[17] = test system: CAL-12T
In short: as §1

[18] = test system: PC-14
In short: as §1

[19] = test system: NCI-H596
In short: as §1

[20] = test system: HOP-62
In short: as §1

[21] = test system: SK-MES-1
In short: as §1

[22] = test system: NCI-H2405
In short: as §1

O=C(O)CCCCC(CCSCc1ccccc1)SCc1ccccc1 (centres undefined) [CPI-613] + C[C@]1(O)C[C@@H](c2nc(-c3ccc4ccc(-c5ccccc5)nc4c3)c3c(N)nccn32)C1 [Linsitinib] (partner 1 µM)
relative viability ([1]; first compound 5 µM): 0.48
relative viability ([1]; first compound 15.81 µM): 0.538
relative viability ([1]; first compound 158.11 µM): 0.573
relative viability ([1]; first compound 500 µM): 0.487
relative viability ([2]; first compound 5 µM): 0.78
relative viability ([2]; first compound 15.81 µM): 0.825
relative viability ([2]; first compound 50 µM): 0.856
relative viability ([2]; first compound 158.11 µM): 0.477
relative viability ([2]; first compound 500 µM): 0.103
relative viability ([3]; first compound 5 µM): 0.854
relative viability ([3]; first compound 15.81 µM): 0.759
relative viability ([3]; first compound 50 µM): 0.95
relative viability ([3]; first compound 158.11 µM): 0.548
relative viability ([3]; first compound 500 µM): 0.2
relative viability ([4]; first compound 5 µM): 0.601
relative viability ([4]; first compound 15.81 µM): 0.637
relative viability ([4]; first compound 50 µM): 0.597
relative viability ([4]; first compound 158.11 µM): 0.587
relative viability ([4]; first compound 500 µM): 0.0054
relative viability ([5]; first compound 5 µM): 0.71
relative viability ([5]; first compound 15.81 µM): 0.671
relative viability ([5]; first compound 50 µM): 0.781
relative viability ([5]; first compound 158.11 µM): 0.61
relative viability ([5]; first compound 500 µM): 0.432
relative viability ([6]; first compound 5 µM): 0.878
relative viability ([6]; first compound 15.81 µM): 0.751
relative viability ([6]; first compound 50 µM): 0.816
relative viability ([6]; first compound 158.11 µM): 0.625
relative viability ([6]; first compound 500 µM): 0.576
relative viability ([7]; first compound 5 µM): 0.985
relative viability ([7]; first compound 15.81 µM): 1.02
relative viability ([7]; first compound 50 µM): 0.988
relative viability ([7]; first compound 158.11 µM): 0.644
relative viability ([7]; first compound 500 µM): 0.0543
relative viability ([8]; first compound 5 µM): 0.526
relative viability ([8]; first compound 15.81 µM): 0.637
relative viability ([8]; first compound 50 µM): 0.655
relative viability ([8]; first compound 158.11 µM): 0.853
relative viability ([8]; first compound 500 µM): 0.54
relative viability ([9]; first compound 5 µM): 1.17
relative viability ([9]; first compound 15.81 µM): 1.18
relative viability ([9]; first compound 50 µM): 1.18
relative viability ([9]; first compound 158.11 µM): 0.559
relative viability ([9]; first compound 500 µM): 0.019
relative viability ([10]; first compound 5 µM): 0.983
relative viability ([10]; first compound 15.81 µM): 0.857
relative viability ([10]; first compound 50 µM): 0.86
relative viability ([10]; first compound 158.11 µM): 0.874
relative viability ([10]; first compound 500 µM): 0.868
relative viability ([11]; first compound 5 µM): 0.93
relative viability ([11]; first compound 15.81 µM): 0.821
relative viability ([11]; first compound 50 µM): 0.83
relative viability ([11]; first compound 158.11 µM): 0.69
relative viability ([11]; first compound 500 µM): 0.117
relative viability ([12]; first compound 5 µM): 0.805
relative viability ([12]; first compound 15.81 µM): 0.847
relative viability ([12]; first compound 50 µM): 0.738
relative viability ([12]; first compound 158.11 µM): 0.251
relative viability ([12]; first compound 500 µM): 0.0081
relative viability ([13]; first compound 5 µM): 1.04
relative viability ([13]; first compound 15.81 µM): 0.956
relative viability ([13]; first compound 50 µM): 0.905
relative viability ([13]; first compound 158.11 µM): 0.544
relative viability ([13]; first compound 500 µM): 0.0935
relative viability ([14]; first compound 5 µM): 0.735
relative viability ([14]; first compound 15.81 µM): 0.453
relative viability ([14]; first compound 50 µM): 0.402
relative viability ([14]; first compound 158.11 µM): 0.221
relative viability ([14]; first compound 500 µM): 0.0094
relative viability ([15]; first compound 5 µM): 0.733
relative viability ([15]; first compound 15.81 µM): 0.823
relative viability ([15]; first compound 50 µM): 0.825
relative viability ([15]; first compound 158.11 µM): 0.701
relative viability ([15]; first compound 500 µM): 0.272
relative viability ([16]; first compound 5 µM): 0.878
relative viability ([16]; first compound 15.81 µM): 0.869
relative viability ([16]; first compound 50 µM): 0.887
relative viability ([16]; first compound 158.11 µM): 0.87
relative viability ([16]; first compound 500 µM): 0.885
relative viability ([17]; first compound 5 µM): 0.865
relative viability ([17]; first compound 15.81 µM): 0.634
relative viability ([17]; first compound 50 µM): 0.561
relative viability ([17]; first compound 158.11 µM): 0.642
relative viability ([17]; first compound 500 µM): 0.62
relative viability ([18]; first compound 5 µM): 0.941
relative viability ([18]; first compound 15.81 µM): 0.874
relative viability ([18]; first compound 50 µM): 0.928
relative viability ([18]; first compound 158.11 µM): 0.857
relative viability ([18]; first compound 500 µM): 1.02
relative viability ([19]; first compound 5 µM): 1.02
relative viability ([19]; first compound 15.81 µM): 1.04
relative viability ([19]; first compound 50 µM): 1.14
relative viability ([19]; first compound 158.11 µM): 0.519
relative viability ([19]; first compound 500 µM): 0.0361
relative viability ([20]; first compound 5 µM): 1.05
relative viability ([20]; first compound 15.81 µM): 1.05
relative viability ([20]; first compound 50 µM): 0.863
relative viability ([20]; first compound 158.11 µM): 0.611
relative viability ([20]; first compound 500 µM): 0.0257
relative viability ([21]; first compound 5 µM): 1.08
relative viability ([21]; first compound 15.81 µM): 1.04
relative viability ([21]; first compound 50 µM): 1.03
relative viability ([21]; first compound 158.11 µM): 0.863
relative viability ([21]; first compound 500 µM): 0.988
relative viability ([22]; first compound 5 µM): 0.979
relative viability ([22]; first compound 15.81 µM): 0.897
relative viability ([22]; first compound 50 µM): 0.895
relative viability ([22]; first compound 158.11 µM): 0.818
relative viability ([22]; first compound 500 µM): 0.773
